# Key:
# Mincle receptor = target: T1, Mincle receptor (Mus musculus, UniProt Q9R0Q8); experiment: HEK-Blue Mincle mouse reporter cells, NF-κB SEAP production; assay type: cell-based
# T1 construct: expressed in transfected cells; host or cells: HEK-Blue Mincle reporter cells (HEK293-derived, NF-kB SEAP reporter)
# T1 sequence (Q9R0Q8 1-214): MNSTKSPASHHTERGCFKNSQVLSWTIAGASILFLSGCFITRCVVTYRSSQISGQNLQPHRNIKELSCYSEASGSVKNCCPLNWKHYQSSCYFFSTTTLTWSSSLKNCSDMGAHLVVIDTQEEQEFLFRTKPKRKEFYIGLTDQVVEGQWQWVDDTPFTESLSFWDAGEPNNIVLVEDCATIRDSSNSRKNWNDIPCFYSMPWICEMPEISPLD
# Method: Compounds were also tested in the commercial reporter Hek-Blue™ cell lines. Hek-Blue™ cells were treated with increasing concentrations of the indicated compound for 18 to 24 hours. Isolated supernatants were measured for NF-κB secreted embryonic alkaline phosphatase (SEAP) production with QUANTI-Blue™ reagent (FIG. 4A). SEAP production was robust for both the mouse and human reporter lines (FIG. 4A), indicating strong signaling through the Mincle receptor in both human and murine systems.
# Balb/c mice = experiment: i.m. immunization of Balb/c mice with M72 antigen and liposomal adjuvant; splenocyte restimulation, intracellular cytokine staining; assay type: in vivo, mouse; conditions: for antigen-specific CD4+ and CD8+ IL-17A producing cells (Th17 response): M72 restimulated splenocytes, TDB at highest dose
# RAW264.7 cells = experiment: Cytokine (TNFα) response of mouse macrophage cell line; Table 2 'Murine'; assay type: cell-based; set-up: Maximum cytokine response Murine: unit not given here; conditions: NR = no response
# Method: Compounds were also tested in a mouse macrophage cell line (FIG. 4B). RAW264.7 cells were subjected to increasing concentrations of the compounds and assessed for production of the cytokine TNFα.
# [1] = tested on: peripheral blood mononuclear cells (PBMCs); experiment: Cytokine analysis of supernatants of stimulated, freshly prepared PBMCs; assay type: cell-based, human; conditions: compounds solubilized in DMSO
# Method: Tumor necrosis factor alpha (TNFα) and IL-6 production in peripheral blood mononuclear cells (PBMCs) was measured after exposure to various concentrations of the DAT compounds synthesized as shown above. Initial studies focused on two different methods of delivery of the DAT compounds to PBMC cultures. In the first delivery method, the indicated derivative compound was dissolved in isopropanol, serially diluted, and then dried to the bottom of a tissue culture plate. In the second delivery method, the indicated derivative compound was dissolved in DMSO and serially diluted into tissue culture media. In each method, PBMCs were added to the compounds and incubated at 37° C. TNFα (FIG. 1A) and IL-6 (FIG. 1B) were measured after 18-24 hours after treatment by ELISA assay.
# Supernatants from the freshly prepared PBMCs stimulated with DAT compounds solubilized in DMSO (Example 5A) were analyzed for the cytokines that help drive Th1 cell or Th17 cell adaptive immune responses; IFNγ, IL-12 p70, IL-6, IL-1β, and IL-23. Minimal amounts of IL-12p70 were detected and IFNγ was undetectable. Therefore, both are not reported.
# [2] = tested on: peripheral blood mononuclear cells (PBMCs); experiment: IL-6 induction in fresh human PBMCs; assay type: cell-based; conditions: for Maximum cytokine response h-IL-6 / Minimal Effective Concentration h-IL-6: human IL-6, NR = no response
# How it was run: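 Fresh human PBMCs incubated at 37 °C with serially diluted compounds delivered in DMSO into medium. IL-6 in supernatants quantified by ELISA 18 h after treatment.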
SMILES,"NF-κB SEAP production, mouse reporter line (Mincle receptor; 18 to 24 hours, QUANTI-Blue)","potency shift in comparison with other compounds, reporter cells (Mincle receptor; HEK-Blue Mincle reporter, compared with PBMC cytokine profiles)",IL-2 production compared to controls (Balb/c mice; 10 nmol group),TNFα production compared to controls (Balb/c mice; higher doses),antigen-specific CD4+ and CD8+ IL-17A producing cells (Th17 response) (Balb/c mice; liposomal formulation),"IL-5 production (Th2 response) in restimulated cells (Balb/c mice; liposomal formulation, M72 vaccine)",Maximum cytokine response Murine (RAW264.7 cells),Minimal Effective Concentration Murine (RAW264.7 cells) [µM],TNFα response in PBMCs (in words) [1],Maximum cytokine response h-IL-6 [2] [OD],Minimal Effective Concentration h-IL-6 [2] [µM],increased potency (EC50) for induction of cytokines relative to other compounds ([2]; human PBMCs),Maximum cytokine response Murine (RAW264.7 cells; listed as 1015),Minimal Effective Concentration Murine (RAW264.7 cells; listed as 1015) [µM],"IL-6 production / activity in fresh PBMCs from multiple donors (in words) ([2]; compounds in DMSO serially diluted in media, supernatants 18 h after treatment)"
"CC(C)(C)c1cc(C(=O)OCC2OC(OC3OC(COC(=O)c4cc(C(C)(C)C)cc(C(C)(C)C)c4O)C(O)C(O)C3O)C(O)C(O)C2O)c(O)c(C(C)(C)C)c1 (stereo not drawn) [UM1024, 6,6′-bis-(3,5-di-tert-butylsalisate)-α,α-trehalose]",distinct very high peak at low concentration of compound,did not display a large leftward potency shift,substantially increased,increased compared to controls,induced high levels of antigen-specific CD4+ and CD8+ IL17A producing cells,seen in restimulated cells,3,0.45,higher responding,3.5,1,over 1000 ×,,,
"CCCCCCCCCCCCCCCCCCCCCC(=O)OC[C@H]1O[C@H](O[C@H]2O[C@H](COC(=O)CCCCCCCCCCCCCCCCCCCCC)[C@@H](O)[C@H](O)[C@H]2O)[C@H](O)[C@@H](O)[C@@H]1O [TDB, trehalose dibehenate, reference compound]",,,,,induced some IL-17A,,,,,,,,,,
"COc1cc(OC)cc(C(=O)OC[C@H]2O[C@H](O[C@H]3O[C@H](COC(=O)c4cc(OC)cc(OC)c4)[C@@H](O)[C@H](O)[C@H]3O)[C@H](O)[C@@H](O)[C@@H]2O)c1 [UM1015, 6,6′-bis-(3,5-dimethoxybenzoate)-α,α-trehalose]",,,,,,,,,higher responding,3.6,111,,3.5,12.3,"potent, robust activity in only 3 of 5 donors"

# Reference: US12319709B2, “Diaryl trehalose compounds and uses thereof” (THE UNIVERSITY OF MONTANA, priority 2018, dated 2025)
